“And” between values parts separate entries of the source, which are not always exact repeats. Identical values can stand only once. Like-named read-outs stand apart in the source and are kept apart here.
Experiments:
VIM-2 [1] = biological target: T1, VIM-2 (Escherichia coli, UniProt Q5U7L7); test: biochemical
VIM-4 [2] = biological target: T2, VIM-4 (Pseudomonas aeruginosa, UniProt Q8KRJ3); assay type: biochemical; settings: read-out: Approximate Ki value (reflecting Km), from a single avibactam concentration (1 mM), ceftazidime 30 µM substrate
SPM-1 [3] = assay type: biochemical
NDM-1 [4] = biological target: T3, NDM-1 (Klebsiella pneumoniae, UniProt C7C422); test: biochemical
T3 sequence (C7C422 43-270 limits assumed, looked up, species assumed): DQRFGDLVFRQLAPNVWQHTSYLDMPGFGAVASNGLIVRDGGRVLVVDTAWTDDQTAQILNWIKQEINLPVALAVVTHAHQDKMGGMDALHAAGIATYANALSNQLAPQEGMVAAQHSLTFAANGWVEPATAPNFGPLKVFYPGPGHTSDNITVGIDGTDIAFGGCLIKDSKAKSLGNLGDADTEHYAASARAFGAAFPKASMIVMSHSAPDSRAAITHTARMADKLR

IMP-1 [5] = biological target: T4, IMP-1 (Serratia marcescens, UniProt P52699); test: biochemical; settings: Approximate Ki (= Km) value, from a single avibactam concentration (1 mM), ceftazidime 30 µM substrate
T4 sequence (P52699 19-246 limits assumed): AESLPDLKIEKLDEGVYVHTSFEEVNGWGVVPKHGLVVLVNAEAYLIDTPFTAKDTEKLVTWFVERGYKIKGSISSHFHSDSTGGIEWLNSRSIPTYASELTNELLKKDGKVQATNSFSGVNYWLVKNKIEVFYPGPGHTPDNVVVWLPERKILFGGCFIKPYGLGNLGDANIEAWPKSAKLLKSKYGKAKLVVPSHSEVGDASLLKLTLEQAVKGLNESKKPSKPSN

FEZ-1 [6] = biological target: T5, FEZ-1 (Fluoribacter gormanii, UniProt Q9K578); test: biochemical; design: species or system Fluoribacter (Legionella) gormanii; settings: Approximate Ki (= Km) value, from a single avibactam concentration (1 mM), ceftazidime 30 µM substrate
T5 sequence (Q9K578 21-282 limits assumed): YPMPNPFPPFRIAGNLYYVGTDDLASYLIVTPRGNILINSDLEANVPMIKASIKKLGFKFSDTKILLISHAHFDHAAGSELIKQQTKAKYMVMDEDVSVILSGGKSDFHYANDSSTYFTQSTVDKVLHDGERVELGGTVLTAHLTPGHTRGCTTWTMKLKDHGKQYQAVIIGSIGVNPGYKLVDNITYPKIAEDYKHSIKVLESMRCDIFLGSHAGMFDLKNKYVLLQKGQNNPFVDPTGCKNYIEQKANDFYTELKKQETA

NDM-1 [7] = biological target: T3, NDM-1; assay type: binding; settings: avibactam 4 mM, Tris-D11 50 mM pH 7.5
VIM-2 [8] = biological target: T1, VIM-2; assay type: binding; settings: VIM-2 80 μM, avibactam 4 mM, Tris-D11 50 mM pH 7.5
VIM-4 [9] = biological target: T2, VIM-4; assay type: binding; settings: VIM-4 80 μM, avibactam 4 mM, Tris-D11 50 mM pH 7.5
BcII = BcII (Bacillus cereus, UniProt P04190); assay type: binding; settings: BcII 80 μM, avibactam 4 mM, Tris-D11 50 mM pH 7.5
Sequence of BcII (P04190 31-257): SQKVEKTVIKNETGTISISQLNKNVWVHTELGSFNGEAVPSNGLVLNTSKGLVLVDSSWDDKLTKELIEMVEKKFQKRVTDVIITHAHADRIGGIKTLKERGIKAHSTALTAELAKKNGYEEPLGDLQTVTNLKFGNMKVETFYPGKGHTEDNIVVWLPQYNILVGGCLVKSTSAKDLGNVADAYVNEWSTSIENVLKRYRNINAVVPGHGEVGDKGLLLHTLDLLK
Method: (§1) Typical experimental parameters for Carr-Purcell-Meiboom-Gill (CPMG) NMR spectroscopy were the following: total echo time, 40 ms; relaxation delay, 2 s; and number of transients, 264 ([31]). The PROJECT-CPMG sequence (90°x-[τ-180°y-τ-90°y-τ-180°y-τ]n-acq) was applied. Water suppression was achieved by presaturation. Prior to Fourier transformation, the data were multiplied with an exponential function with 3-Hz line broadening.
(§2) For ^1H excitation sculpting suppression with perfect echo NMR experiments, spectra were typically obtained using 256 scans and a relaxation delay of 1 s ([32]). A 2-ms sinc pulse was used for water suppression. Prior to Fourier transformation, data were multiplied with an exponential function with 2-Hz line broadening.
(§3) For water-ligand observed gradient spectroscopy (wLOGSY) analyses, typical experimental parameters were the following: mixing time, 1 s; relaxation delay, 2 s; number of transients, 256 ([33]). Solvent excitation was achieved using a 16-ms 180° selective rectangular shape pulse with 1,000 points (Squa100.1000) set at the H2O frequency. Water suppression was achieved by a 2-ms sinc pulse (Sinc1.1000) at the H2O frequency.

SPM-1 [10] = assay type: binding
Method: as §1, §2, §3

FEZ-1 [11] = biological target: T5, FEZ-1; assay type: binding, Fluoribacter (Legionella) gormanii; settings: FEZ-1 80 μM, avibactam 4 mM, Tris-D11 50 mM pH 7.5
CphA = CphA (Aeromonas hydrophila, UniProt P26918); assay type: binding; settings: CphA 80 μM, avibactam 4 mM, Tris-D11 50 mM pH 7.5
Sequence of CphA (P26918 28-254): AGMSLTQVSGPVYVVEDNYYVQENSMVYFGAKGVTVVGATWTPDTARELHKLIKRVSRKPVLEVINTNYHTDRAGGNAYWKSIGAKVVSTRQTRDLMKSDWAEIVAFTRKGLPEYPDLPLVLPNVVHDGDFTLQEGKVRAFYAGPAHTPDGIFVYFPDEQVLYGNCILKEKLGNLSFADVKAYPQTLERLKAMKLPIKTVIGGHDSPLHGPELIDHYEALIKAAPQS

VIM-4 [12] = biological target: T2, VIM-4; settings: 1 mM avibactam (600 μl), 12 μg VIM-4, 5 mM HEPES pH 7.5, 20 μM ZnCl2, 4 h at 37°C
NDM-1 [13] = biological target: T3, NDM-1; settings: NDM-1 0.022 mM; still extremely slow by normal β-lactamase standards
VIM-4 [14] = biological target: T2, VIM-4; settings: still extremely slow by normal β-lactamase standards
VIM-4 [15] = biological target: T2, VIM-4; settings: VIM-4, 240 min, Raman spectroscopy
VIM-4 [16] = biological target: T2, VIM-4; settings: LC-MS
[17] = Stability of avibactam in buffer without enzyme (NMR control); settings: buffer (Tris-D11 50 mM, pH 7.5)
[18] = system: all of the MBLs (VIM-2, VIM-4, SPM-1, NDM-1, IMP-1, FEZ-1); test: Complete time courses of ceftazidime hydrolysis; assay type: biochemical; settings: all MBLs incl. VIM-4; concluded from quasi first-order complete time courses, 5 mM HEPES pH 7.5
SPM-1 [19] = system: SPM-1; design: method as in PMID 12543663; settings: reported conditions different, read-out: ceftazidime Km; cited from earlier work
FEZ-1 [20] = biological target: T5, FEZ-1; design: method as in PMID 11257043; settings: reported conditions different, read-out: ceftazidime Km; cited from earlier work
VIM-2 [21] = biological target: T1, VIM-2; settings: cited from earlier work
NDM-1 [22] = biological target: T3, NDM-1; settings: cited from earlier work
IMP-1 [23] = biological target: T4, IMP-1; settings: cited from earlier work
[24] = system: NC(=O)[C@@H]1CC[C@@H]2CN1C(=O)N2OS(=O)(=O)O; test: purified protein, by the assay type

NC(=O)[C@@H]1CC[C@@H]2CN1C(=O)N2OS(=O)(=O)O [avibactam]
Ki (VIM-2 [1]): > 5000 µM | Ki (VIM-4 [2]): > 5000 µM | Effect of avibactam on SPM-1-catalyzed ceftazidime hydrolysis (SPM-1 [3]; 1 mM avibactam, ceftazidime 30 µM): apparent activation | Residual activity (SPM-1 [3]; ceftazidime (30 µM) in the presence of 1 mM avibactam, HEPES buffer, 30°C): 140 + 15% | Ki (NDM-1 [4]): > 5000 µM | Ki (IMP-1 [5]): 1700 µM and ~1700 µM | Ki (FEZ-1 [6]): 2300 µM and ~2300 µM | Binding by 1H CPMG NMR (NDM-1 [7]): weak binding | Binding by 1H CPMG NMR (VIM-2 [8]): weak binding | Binding by 1H CPMG NMR (VIM-4 [9]): weak binding | Binding by 1H CPMG NMR (BcII): did not observe binding | Binding by 1H CPMG NMR (SPM-1 [10]; SPM-1 80 μM, avibactam 4 mM, Tris-D11 50 mM pH 7.5): weak binding | Binding by 1H CPMG NMR (FEZ-1 [11]): weak binding | Binding by 1H CPMG NMR (CphA): did not observe binding | Avibactam hydrolyzed (from absorbance at 230 nm) (VIM-4 [12]): ~70% | Avibactam hydrolysis observed by NMR (NDM-1 [13]): more efficient hydrolysis | Avibactam hydrolysis observed by NMR (VIM-4 [14]): more efficient hydrolysis | Amount of sulfate produced from avibactam (of the total avibactam product) (VIM-4 [15]): < 15% | Reduction of the avibactam MS signal after VIM-4-catalyzed hydrolysis (VIM-4 [16]): ~50 fold | Hydrolysis of avibactam without enzyme [17]: did not lead to detectable product levels

NC(=O)[C@@H]1CC[C@@H](NOS(=O)(=O)O)CN1 [hydrolyzed product(s)]
Binding of products of avibactam by wLOGSY NMR (SPM-1 [10]; SPM-1, hydrolyzed product NOE sign opposite to that of SPM-1 (free ligand)): no evidence for binding

CC(C)(O/N=C(\C(=O)N[C@@H]1C(=O)N2C(C(=O)[O-])=C(C[n+]3ccccc3)CS[C@H]12)c1csc(N)n1)C(=O)O [ceftazidime]
Km [18]: > 30 µM | Km (SPM-1 [19]): 46 µM | Km (FEZ-1 [20]): > 1000 µM | Km (VIM-2 [21]): 72 µM | Km (NDM-1 [22]): 180 µM | Km (IMP-1 [23]): 46 µM

FEZ-1 (Fluoribacter gormanii)
kcat/Km [24]: 70 ± 15 M⁻¹ s⁻¹ | kcat/Km ([24]; pH 7.5, 30.0 °C): 70 ± 15 M⁻¹ s⁻¹

— paper PMC5038302 (Antimicrobial Agents and Chemotherapy, 2016)
